The nature of data set [1]: Log P determination (n-octanol/water, FAAS). Put shortly: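 Shake-flask partition between mutually saturated n-octanol and water; Au in each phase quantified by flame AAS against aqueous Au-standard and n-octanol calibration curves. Compound shaken ~4 h in water then 1 h with octanol, or 3-4 h in both phases then diluted and shaken 1 h; log P = log([oct]/[water]).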
Data set [2] deals with C. neoformans ATCC 208821. The data set can be described thus: Antifungal MIC. The class given is cell-based. The settings on record: for MIC: C. neoformans ATCC 208821.
Another data set relates to A549 cells. The data set can be described thus: Cytotoxicity assay (resazurin). The class given is cell-based. The settings on record: 20 h, mean±S.E.M. from two independent experiments. As to the method:
Sample preparation. The compounds were dissolved in DMSO at 12.8 mg/mL as the stock solutions, except for compounds 9-17, which were directly dissolved in the culture medium at 12.8 mg/mL. The stock solutions were diluted by the culture medium to the testing concentration at 128 μg/mL (compound 9-17 were diluted to 1,280 μg/mL). The solutions were then serially diluted two fold in a 96-well plate and were used in the cytotoxicity assay immediately.
Cell culture and cytotoxicity assay. A549 cells (ATCC CCL-185) were cultured in high glucose DMEM (Sigma-Aldrich, D6429) supplemented with 10% FBS, 1% penicillin-streptomycin solution (Sigma-Aldrich, P4333), 1% gentamicin solution (Sigma-Aldrich, G1272) and 1% amphotericin B solution (Sigma-Aldrich, A2942) at 37° C. in a humidified atmosphere containing 5% CO2. After cells reached 80%˜90% confluency, they were detached and counted using an Invitrogen Countess automated cell counter. Cells with viability over 90% were seeded at a density of 5×10^3 cells per well in 96-well cell culture plates. After overnight culture, the culture medium in each well removed with a pipet. 80 μL of the compound solutions from each well of the 96-well plate prepared above were transferred to this 96-well plate containing the cells, and the plates were incubated for 20 h. After addition of 8 μL of 110 μg/mL resazurin, the plates were incubated for further 3 h at 37° C. in 5% CO2. The fluorescence intensity was measured using a Tecan M200 Infinite Pro microplate reader at excitation 560 nm, emission 590 nm. IC50 were calculated by curve fitting the inhibition values vs. log(concentration) using GraphPad's Prism. The cytotoxicity assays (in triplicate) were repeated twice using freshly prepared cells and compound solutions.
In general terms: Resazurin is reduced to fluorescent resorufin, in cell work by metabolically active cells.

A further data set concerns E. coli ATCC 25922. The data set can be described thus: Antibacterial assay, MIC/MBC by broth microdilution (CLSI). The class given is cell-based. The settings on record: for MIC: repeated twice, a/b = both values. Put shortly:
(§1)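 CLSI broth microdilution in cation-adjusted Mueller Hinton broth, log-phase inoculum diluted to 7.5×10^5 CFU/mL before 1:1 mixing with two-fold compound dilutions, triplicates, 18 h at 37 °C static. MIC: >90% inhibition by OD600; MBC: lowest concentration giving no colonies after 5 μL spotted on agar, 18 h, 37 °C.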
(In general: In broth dilution the organism is exposed to a series of concentrations in liquid medium.)

The next data set has as its system S. aureus JE2 (USA300). The data set is described as above. The class given is cell-based. The settings on record: S. aureus JE2 (USA300); for MIC: repeated twice, a/b = both values. The procedure, abridged:
as §1

The test system of data set [3] is K. pneumoniae ATCC 700603. Described as above. The following applies: K. pneumoniae ATCC 700603; for MIC: repeated twice, a/b = both values. The class given is cell-based. Put shortly: as §1
The next data set concerns E. cloacae NCTC 13405. The description is as above. The class given is cell-based. The following applies: E. cloacae NCTC 13405; for MIC: repeated twice, a/b = both values. Put shortly:
as §1

In a further data set the test system is P. aeruginosa NCTC 13437. Described as above. The following applies: P. aeruginosa NCTC 13437; for MIC: repeated twice, a/b = both values. Type of data set: cell-based. The procedure, abridged:
as §1

The subject of another data set is A. baumannii NCTC 13420. The data set is described as above. The class given is cell-based. The following applies: A. baumannii NCTC 13420; for MIC: repeated twice, a/b = both values. The procedure, abridged:
as §1

For another data set, the system named is E. faecalis ATCC 700221. The description is as above. The class given is cell-based. The settings on record: for MIC: repeated twice, a/b = both values. The procedure, abridged:
as §1

Another data set relates to C. albicans ATCC 90028. The data set can be described thus: Antifungal MIC. The class given is cell-based.

Broadly, the logP is a log measure of how a compound divides between an organic and an aqueous phase. A low value points to lower lipophilicity. The term Log P denotes the decadic logarithm of the partition coefficient of the neutral form, usually between octanol and water.

Consider `CC[P+](CC)(CC)[Au-]1[SH](CC2O[C@H](O[C@H]3OC(COC(C)=O)[C@@H](OC(C)=O)C(OC(C)=O)[C@H]3OC(C)=O)C(OC(C)=O)[C@@H](OC(C)=O)[C@@H]2OC(C)=O)[Au]1[PH](CC)(CC)CC` (stereo partly shown) [Compound 7], for which the logP in data set [1] was -0.28. Moreover, the “antifungal activity in words” value in data set [2] (C. neoforman, strain not named) was “moderate antifungal activity”.
Consider `CC[P+](CC)(CC)[Au-][S][C@@H]1O[C@H](COC(C)=O)[C@@H](OC(C)=O)[C@H](OC(C)=O)[C@H]1NC(=O)C(Cl)(Cl)Cl` [Compound 4, (3,4,6-Tri-O-acetyl-2-N-trichloroactyl-1-thio-β-D-glucopyranosato) (triethylphosphine) gold (I)], for which the “IC50 against A549 cells” value with A549 cells amounted to 7.9 ± 0.1 µg/mL. In addition, the “MBC (in brackets)” value against E. coli ATCC 25922 is recorded as 21 (21) μM/mL; in the data set with S. aureus JE2 (USA300) it was “(0.01) μM/mL”; against A. baumannii NCTC 13420, 164 μM/mL; with E. faecalis ATCC 700221, “(0.2) μM/mL”. Further, the MIC with E. coli ATCC 25922 is 21 (21) μM/mL; with S. aureus JE2 (USA300) it was 0.01 μM/mL; in data set [3], >328 μM/mL; against E. cloacae NCTC 13405 it was >328 μM/mL; against P. aeruginosa NCTC 13437, >328 μM/mL; in the data set with A. baumannii NCTC 13420 it was 82 μM/mL. The MIC in the data set with E. faecalis ATCC 700221 is 0.08 μM/mL; in data set [2], >32 µg/mL; in the data set with C. albicans ATCC 90028, >32 µg/mL.
For the compound `CC[P+](CC)(CC)[Au-][S][C@@H]1O[C@H](COC(C)=O)[C@@H](O[C@@H]2O[C@H](COC(C)=O)[C@H](OC(C)=O)[C@H](OC(C)=O)[C@H]2OC(C)=O)[C@H](OC(C)=O)[C@H]1OC(C)=O` [Compound 6, [2,3,4,6-Tetra-O-acetyl-β-D-galactopyranosyl (1→4)-2,3,6-tri-O-acetyl-1-thio-β-D-glucopyranosato](triethylphosphine) gold(I)], the “IC50 against A549 cells” value with A549 cells was determined as 29.8 ± 3.2 µg/mL. In addition, the “MBC (in brackets)” value in the data set on E. coli ATCC 25922 was 33 (33) μM/mL; in the data set on S. aureus JE2 (USA300) it was “(0.1) μM/mL”; against E. cloacae NCTC 13405 it was 265 (265) μM/mL; against P. aeruginosa NCTC 13437, 132 (132) μM/mL; against A. baumannii NCTC 13420 it was 132 μM/mL; against E. faecalis ATCC 700221, 0.3 μM/mL. For the same compound, the MIC against E. coli ATCC 25922 is listed as 33 (33) μM/mL; against S. aureus JE2 (USA300), 0.03 μM/mL; in data set [3] it was >265 μM/mL; in the data set with E. cloacae NCTC 13405, 265 (265) μM/mL; in the data set with P. aeruginosa NCTC 13437, 132 (132) μM/mL; against A. baumannii NCTC 13420, 66 μM/mL. Also, the MIC was 0.1 μM/mL in the data set with E. faecalis ATCC 700221, >32 µg/mL in data set [2] and >32 µg/mL against C. albicans ATCC 90028.
Consider “(1-Thio-β-D-maltosato)(triethylphosphine) gold(I) [Compound 14]”, for which the “Log P” value in data set [1] is −1.69. The “IC50 against A549 cells” value in the data set with A549 cells was found to be 31.0 ± 2.4 µg/mL. The “MBC (in brackets)” value with E. coli ATCC 25922 was 12 (12) μM/mL; with S. aureus JE2 (USA300) it was 4 (0.09) μM/mL; against E. cloacae NCTC 13405 it was 190 (190) μM/mL; against P. aeruginosa NCTC 13437 it was 381 (381) μM/mL; in the data set on A. baumannii NCTC 13420 it was 24 (24) μM/mL; against E. faecalis ATCC 700221 it was “(0.4) μM/mL”. Also, the MIC was 12 (12) μM/mL in the data set on E. coli ATCC 25922; >381 μM/mL in [3]; 190 (190) μM/mL against E. cloacae NCTC 13405; 381 (381) μM/mL in the data set with P. aeruginosa NCTC 13437; 24 (24) μM/mL in the data set with A. baumannii NCTC 13420.
Consider “(1-Thio-β-D-glucopyranosato)(trimethylphosphine) gold(I) [Compound 15]”, for which the “Log P” value in [1] is on record as −1.63. Also, the “IC50 against A549 cells” value with A549 cells was 52.2 ± 1.0 µg/mL. In addition, the “MBC (in brackets)” value is recorded as 9 (9) μM/mL against E. coli ATCC 25922; “(1) μM/mL” in the data set with S. aureus JE2 (USA300); 34 (34) μM/mL in [3]; 17 μM/mL in the data set on E. cloacae NCTC 13405; 17 μM/mL in the data set on A. baumannii NCTC 13420; “(0.5) μM/mL” against E. faecalis ATCC 700221. The MIC is 9 (9) μM/mL in the data set on E. coli ATCC 25922; 34 (34) μM/mL in [3]; 4/9 in the data set on E. cloacae NCTC 13405; >547 μM/mL in the data set on P. aeruginosa NCTC 13437; 17/4 with A. baumannii NCTC 13420.

The values above are taken from patent publication US20210198284A1, “GOLD COMPOSITIONS AND METHODS OF USE THEREOF” (THE UNIVERSITY OF MASSACHUSETTS, priority 2018, published 2021).
